# Test system: A2058 cells isolated from tumor-bearing mice
# Experiment: Chemosensitization of cultured A2058 cells isolated from xenografts
# Assay type: cell-based, human
# Conditions: A2058; 72 h-cultured; PL 1 μM, Chemo 0.25 μM PAC.PBP; Pter = in vivo pretreatment
# Protocol: FIG. 5. Chemosensitization effect of GSH depletion (A) or sod1-AS (B) in melanoma cells isolated from Pter-treated mice. Melanoma cells were cultured as in FIG. 1C. PAC.PBP (100 ng/ml) was added to the culture flasks 24 h after seeding. […] Data are mean values±SD for 5-6 different experiments (*p<0.01, comparing all experimental conditions vs controls).
# FIGS. 18-25. Effect of piperlongumine and I-BET762, as GSH depleting and chemosensitizing agents, in in vitro growing human melanoma, pancreatic, breast, lung, liver, prostate, ovarian, and colorectal cancer cells. Cancer cells, isolated from Pter-treated tumor-bearing mice, were cultured as indicated under Methods. Chemotherapy (0.25 μM PAC.PBP in A2058 melanoma and MDA-MB-231 breast carcinoma cells; 0.125 μM PAC.PBP and 25 μM GTB in AsPC-1 pancreatic cancer cells; 1 μM VRB and 15 μM cisPt in A459 lung carcinoma cells; 0.15 μM DXR in HepG2 hepatocellular carcinoma cells; 15 nM DCT in PC-3 prostate carcinoma cells; 0.15 μM PAC.PBP and 25 μM CarboPt in SK-OV-3 ovarian carcinoma cells; 3 μM 5-FU, 1 μM FA and 0.6 μM IRI in HT-29 colorectal carcinoma cells) was added to the cultured flasks 24 h after seeding. PL (1 μM in A2058 and AsPC-1 cells; 0.5 μM in A549 and HT-29 cells; 0.2 μM in HepG2, PC-3, and SK-OV-3 cells; 0.1 μM in MDA-MB-231 cells) or I-BET762 (0.5 μM in HT-29 cells; 0.2 μM in A2058, AsPC-1, HepG2, PC-3, and SK-OV-3 cells; 0.1 μM in A549 and MDA-MB-231 cells) were added 6 h later. Data are mean values±SD for 4-5 different experiments per cell line (*p<0.05 and **p<0.01, comparing all experimental conditions versus control. PL, piperlongumine; PAC.PBP, paclitaxel protein-bound particles; GTB, gemcitabine; DXR, doxorubicin; VRB, vinorelbin; CisPt, cisplatin; docetaxel, DCT; CarboPt, carboplatin; 5-FU, 5-fluoracil; FA, folinic acid; IRI, irinotecan; 5-FU+FA+IRI=FOLFIRI).
# Human A2058, MeWo and MelJuso melanoma cells, and mouse AtT-20 pituitary corticotroph tumor cells were from the American Type Culture Collection (ATCC). Human HEMa-LP epidermal melanocytes were from Life Technologies (Grand Island, N.Y.). Human MDA-MB-231 (triple negative: ER−, PR−, HER2−) and MCF-7 (ER+, PR+, HER2−) breast adenocarcinoma, A549 lung adenocarcinoma (NSCLC), HepG2 hepatocellular carcinoma, LNCaP (AR+) and PC-3 (AR−) prostate adenocarcinoma, SK-OV-3 epithelial ovarian carcinoma, and HT-29 and Caco-2 colorectal carcinoma cells were from the American Type Culture Collection. Cells were grown in Dulbecco's modified Eagle's medium (DMEM) (Invitrogen, San Diego, Calif.), pH 7.4, supplemented with 10% heat-inactivated FCS (Biochrom KG, Berlin, Germany), 100 units/ml penicillin and 100 μg/ml streptomycin. Cells were plated, at a density of 20,000 cells/cm2, and cultured at 37° C. in a humidified atmosphere with 5% CO2. Cells were harvested by incubation for 5 min with 0.05% (w/v) trypsin (Sigma, St. Louis, Mo.) in PBS (10 mM sodium phosphate, 4 mM KCl, 137 mM NaCl), pH 7.4, containing 0.3 mM EDTA, followed by the addition of 10% FCS to inactivate the trypsin. Cell numbers were determined using a Coulter Counter (Coulter Electronic Inc., Miami, Fla.). Cells were allowed to attach for 12 h before any treatment addition. Cellular viability was assessed as previously reported (Mena, S. et al. Clin Cancer Res 13, 2658-2666 (2007)), by measuring trypan blue exclusion and leakage of lactate dehydrogenase activity.
# Isolation of Tumor Cells from Mouse Xenografts Using Enzymatic Digestion and a double Ficoll gradient. […]
smiles,measurement,value
"COc1cc(/C=C/c2ccc(O)cc2)cc(OC)c1 [Pter, trans-3,5-dimethoxy-4′-hydroxystilbene]",Viable cells,1015 ± 144 ×10^6
